This is an account of results in patent publication EP4759817A1, “HETEROARYL COMPOUND, PREPARATION METHOD THEREFOR, AND USE THEREOF IN MEDICINE” (Jiangsu Hengrui Pharmaceuticals Co., Ltd., priority 2023, dated 2025).

Data set [1] is described as follows: Pharmacokinetic evaluation in Nu/Nu mice (plasma, LC-MS/MS). The class given is in vivo. As to conditions: mouse, in vivo, po, i.g., 100 mg/kg. The procedure: Using Nu/Nu mice as the test animals, the plasma concentrations of the example compounds at different time points were determined by LC-MS/MS following oral gavage (i.g.) administration. The pharmacokinetic behaviours of the compounds of the present disclosure in Nu/Nu mice were investigated, and their pharmacokinetic profiles were evaluated.
Compound 1-p1, compound 2-p1, compound 8-p1 and comparative example 1.
A total of 36 female Nu/Nu mice (supplied by Vital River Laboratory Animal Technology Co., Ltd.) were randomly divided into 4 groups.
An appropriate amount of each test compound was weighed and dissolved in 5% DMSO+20% PEG400+70% (10% TPGS)+5% (1% HMPC K100LV) to prepare a 10 mg/mL colourless clear solution.
The administration dosage was 100 mg/kg, and the administration volume was 10 mL/kg.
Mice were not fasted. After oral gavage administration, blood (0.1 mL) was collected from the orbital cavity before administration, and at 0.25 h, 0.5 h, 1.0 h, 2.0 h, 4.0 h, 6.0 h, 8.0 h, 11.0 h and 24.0 h after administration. The blood was placed into EDTA-K2 anticoagulant tubes and centrifuged at 10000 rpm for 1 minute (4°C) to separate plasma. The plasma was separated within 1 h and stored at -20°C until analysis. The entire process from blood collection to centrifugation was performed in ice bath conditions.
Determination of test compound contents in plasma of Nu/Nu mice after administration of different compounds: To 20 µL of plasma samples from each time point in Nu/Nu mice, 200 µL of acetonitrile and 25 µL of verapamil (100 ng/mL) were added. The mixture was vortex-mixed for 5 minutes and centrifuged at 4000 rpm for 15 minutes. 90 µL of water and 90 µL of the supernatant were vortex-mixed for 5 minutes. 2 µL (for compound 1-p1), 2 µL (for compound 2-p1), 1 µL (for compound 8-p1), or 0.5 µL (for comparative example 1) of the supernatant was taken for LC-MS/MS analysis receptively.

In data set [2] the test system is HCT116 MTAP-/- cells. Put plainly: HCT116 MTAP-/- cell proliferation assay (CellTiter-Glo, 10 days). As to conditions: Homo sapiens, HCT-116, 240 h, growth inhibition, CTG assay Day 10. The class given is cell-based. An excerpt:
• I. Experimental materials and instruments • 1. HCT116 cell line (Nanjing Kebai Biotechnology Co., Ltd., CBP60028) • 2. HCT116 MTAP-/- cell line (Nanjing Kebai Biotechnology Co., Ltd., CBP75002) • 3. DMSO (Sigma, D2650) • 4. McCoy's 5A medium (Gibco, 16600-082) • 5. Foetal bovine serum (FBS) (Gibco, 10091148) • 6. Phosphate buffered saline (DPBS) pH 7.4 (Gibco, 14190-144) • 7. Pen strep (PS) (Gibco, 15140-122) • 8. 0.25% Typsin-EDTA (1×) (Gibco, 25200-072) • 9. CellTiter-Glo® Luminescent Cell Viability Assay (Promega, G7572) • 10. 96-well round-bottom plate (JET, TCP002096) • 11. 96-well black clear bottom plate (Hangzhou Xinyou Biotechnology Co., Ltd., 060096) • 12. 1.2 mL 96-well deep well plate, clear, sterile, square-well, V-bottom (Titan, 02089063) • 13. 15-mL centrifuge tube (Titan) • 14. Biosafety cabinet (Thermo, 1300AII) • 15. Cell counter (Countstar, IC1000) • 16. Incubator (Thermo, I160) • 17. Centrifuge (Beckman coulter, Allegra X-12 centrifuge) • 18. PHERAstar FS microplate reader (BMG Labtech) • II. Experimental procedure • 1. Cell plating (Day 0) • a) The cell morphology was observed under a microscope to ensure confluence reached approximately 90%. • b) The cell supernatant was aspirated, the cells were washed once with PBS, and then the PBS was removed; and the cells were digested by adding an appropriate amount of trypsin, and left to stand at 37°C for 3 minutes. • c) The digestion was terminated by adding an equal volume of McCoy's 5A medium containing 10% FBS, and the cell suspension was collected and centrifuged at 300 g for 3 minutes; and the cells were resuspended in an appropriate amount of fresh medium. • d) The resuspended cell suspension was taken for counting. • e) The cell suspension was diluted to 1e4/mL using McCoy's 5A medium containing 10% FBS, and seeded at 50 µL per well, corresponding to 500 cells/well for HCT116 and 500 cells/well for HCT116 MTAP-/-. • f) The cell plate was placed in a 37°C, 5% carbon dioxide incubator and incubated overnight. • 2. Compound treatment (Day 1) • a) Each compound was serially diluted in DMSO to generate a 9-point concentration gradient (starting concentration: 10000 µM, 3-fold dilution; the highest concentration may be adjusted individually based on IC50 of different compounds); for example, in a 96-well round-bottom compound-dilution plate, 5 µL of the compound was sequentially diluted into 10 µL of DMSO. • b) Each concentration point of every compound was then diluted 250-fold into the corresponding volume of McCoy's 5A medium. • c) To each cell plate, 50 µL of the diluted compound solution as described above was added sequentially to the cell supernatant (50 µL/well). • d) The compound-treated cell plate was placed in a 37°C, 5% carbon dioxide incubator and incubated. • 3. Re-digestion, re-plating and compound treatment (Day 5) • a) After 5 days of compound treatment, the compound-containing medium was aspirated, and the cells were rinsed once with PBS (100 µL/well); and the PBS was removed immediately. • b) The cells were digested by adding 25 µL of trypsin and incubated at 37°C for 3 minutes, and then the digestion was terminated by adding 175 µL/well of McCoy's 5A medium containing 10% FBS. • c) The cells were mixed thoroughly using a pipette, and re-plated at 1 : 20; and specifically, 10 µL of the cell suspension was aspirated to a new 96-well plate (pre-filled with 40 µL of McCoy's 5A medium containing 10% FBS. • d) Compounds were prepared and added according to steps a) to c) in Section 2, with 50 µL added per well. • e) The compound-treated cell plate was placed in a 37°C, 5% carbon dioxide incubator and incubated. • 4. […]
In general terms: Cellular ATP, detected with luciferase, serves as a proxy for viable cell number.

In data set [3] the target is T1, Recombinant human PRMT5: MEP50 protein (Homo sapiens, UniProt O14744).
T1 construct: purchased active motif 31521
Put plainly: Inhibitory activity against human PRMT5 enzymatic activity (HTRF quantification of SAH, +MTA). The class given is biochemical. The settings on record: +1 µM MTA; histone H4 peptide substrate (1-21), SAM; 37°C 120 min. The procedure: • 1. Recombinant human PRMT5: MEP50 protein (active motif, 31521) • 2. EPIgeneous Methyltransferase kit (cisbio, 62SAHPEH) • 3. 96-well plate (Sangon Biotech, F610960-0010) • 4. 384-well white plate (Perkin Elmer, 6007290) • 5. 1 M Tris-HCl [pH 8.5] (Sangon Biotech, B548141) • 6. Histone H4 peptide substrates (1-21) (BPS bioscience, 52014) • 7. 5'-deoxy-5'-(methylthio)adenosine (Aladdin, D168979-25 mg) • 8. Tween-20 (Sangon Biotech, A100777-0500) • 9. DMSO (Sigma, D2650) • 10. Incubator (Shanghai Boxun Medical Biological Instrument Corp.) • 11. PHERAstar FS microplate reader (BMG Labtech)
PRMT5 can induce the transfer of a methyl group from S-adenosylmethionine (SAM) to a histone H4 peptide substrate (1-21), generating S-adenosylhomocysteine (SAH). In this experiment, the amount of SAH produced in the reaction is quantified using a Homogeneous Time-Resolved Fluorescence (HTRF) method to evaluate the inhibitory activity of compounds against PRMT5 enzymatic activity.
The sample diluent containing (or not containing) 1 µM 5 '-deoxy-5' - (methylthiyl) adenosine (MTA) was prepared using the EPIgeneous Diluent Buffer from the EPIgeneous Methyltransferase kit. With reference to the instructions, SAM and SAH standards were serially diluted and dispensed at 10 µL per well (in duplicate for each concentration). 2 µL of EPIgeneous Detection Buffer 1 was added to each well, and the plate was centrifuged, shaken to mix thoroughly, and placed at room temperature for 10 min. The SAH d2 Reagent was diluted 32-fold with EPIgeneous Detection Buffer 2, and 4 µL of the diluted SAH-d2 solution was added to each well. The plate was centrifuged and shaken for 2 min to mix thoroughly. The SAH Tb Cryptate Antibody was diluted 50-fold in EPIgeneous Detection Buffer 2. 4 µL of the diluted Tb Cryptate Antibody solution was added to each well, and the plate was centrifuged, shaken for 2 min to mix thoroughly, and left to stand at room temperature for 60 min, followed by reading on a PHERAstar FS microplate reader to obtain the 665/620 ratio. Plotting SAH concentration against the ratio to generate an x-y curve yields a corresponding calculation formula.
Reaction buffer (1×): 50 mM Tris-HCl [pH 8.5], 1 mM DTT, 0.005% Tween-20.
Compound preparation: a 20 mM solution of test compound in 100% DMSO was diluted in 100% DMSO to 1 mM as the highest concentration, and the solution at this concentration was then subjected to a 10-point, 3-fold serial dilution in 100% DMSO in a 96-well plate. Wells containing 100% DMSO served as the blank control. The above-described serially diluted compounds and the 100% DMSO were diluted 20-fold with the reaction buffer to prepare 5× compound solutions, which were mixed thoroughly for use.
The PRMT5:MEP50 was diluted in the reaction buffer to a final concentration of 12.5 nM. Then, 4 µL of the 12.5 nM PRMT5:MEP50 solution was added to each well of a 384-well plate. Wells containing 4 µL of the reaction buffer served as the negative control wells. 2 µL of the 5× compound solution was added to each well. For the negative control wells (no enzyme, no compound) and the positive control wells (no compound), 2 µL of 5% DMSO was added. The plate was sealed with a membrane, centrifuged, shaken for 2 min to mix thoroughly, and placed at room temperature for 20 min.
Preparation of substrate mixture solution: The substrate mixture solution containing 1.5 µM histone H4 peptide substrate (1-21) and 2.5 µM SAM, or 1.5 µM histone H4 peptide substrate (1-21), 2.5 µM SAM and 2.5 µM MTA was prepared in the reaction buffer.
The reaction was initiated by adding 4 µL of the substrate mixture solution (-/+ MTA) to each well. The plate was sealed with a membrane, centrifuged, shaken for 2 min to mix thoroughly, and incubated at 37°C for 120 min in a constant temperature incubator.
Detection: The detection was performed by using the EPIgeneous Methyltransferase kit. […]
On the technique in general: Time-resolved FRET reads energy transfer from a long-lived donor to a nearby acceptor.

Each structure is given as a SMILES string.

T1 sequence (O14744 whole entry): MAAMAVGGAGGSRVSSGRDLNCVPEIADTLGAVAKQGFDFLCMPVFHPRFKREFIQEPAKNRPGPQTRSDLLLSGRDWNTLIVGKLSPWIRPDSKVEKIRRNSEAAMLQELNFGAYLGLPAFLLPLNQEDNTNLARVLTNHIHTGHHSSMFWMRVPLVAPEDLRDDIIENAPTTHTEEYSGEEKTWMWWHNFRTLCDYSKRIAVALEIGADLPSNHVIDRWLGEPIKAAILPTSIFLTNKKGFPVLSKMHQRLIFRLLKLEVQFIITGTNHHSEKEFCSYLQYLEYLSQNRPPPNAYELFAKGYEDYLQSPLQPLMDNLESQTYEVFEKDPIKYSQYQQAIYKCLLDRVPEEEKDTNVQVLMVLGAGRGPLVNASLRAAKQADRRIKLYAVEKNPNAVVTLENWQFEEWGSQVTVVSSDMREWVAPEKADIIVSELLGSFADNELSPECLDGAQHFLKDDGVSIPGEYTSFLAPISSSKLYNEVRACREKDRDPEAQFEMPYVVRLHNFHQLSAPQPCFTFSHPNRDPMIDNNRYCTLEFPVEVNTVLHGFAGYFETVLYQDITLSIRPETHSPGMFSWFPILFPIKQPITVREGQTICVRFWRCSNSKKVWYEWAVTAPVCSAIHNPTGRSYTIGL
T1 sequence (Q9BQA1 whole entry partner): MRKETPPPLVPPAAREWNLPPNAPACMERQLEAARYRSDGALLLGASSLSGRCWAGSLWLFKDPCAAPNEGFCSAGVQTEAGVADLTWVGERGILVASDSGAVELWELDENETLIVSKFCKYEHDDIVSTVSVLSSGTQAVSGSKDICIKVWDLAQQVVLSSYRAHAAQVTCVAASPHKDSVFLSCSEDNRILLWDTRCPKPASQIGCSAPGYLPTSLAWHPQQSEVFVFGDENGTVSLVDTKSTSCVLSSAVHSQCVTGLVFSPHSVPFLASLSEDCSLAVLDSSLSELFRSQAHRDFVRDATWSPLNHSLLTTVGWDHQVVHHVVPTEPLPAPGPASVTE

For `Cn1ncc(-c2ccc3c(=O)[nH]nc(CN)c3c2)c1-c1c(F)cc2c(c1C#N)OCCO2` (atropisomer, axis not shown) [Comparative example 1, reference compound], in data set [1] (read-out: Apparent volume of distribution V/F), the Vd/F amounted to 132 L/kg. In addition, in data set [1] (read-out: Area under the curve AUC0-t), the AUC(0-t) came to 1.72 µg·h/mL. The CL/F in data set [1] (read-out: Clearance CL/F) worked out at 57.6 L/h/kg. Moreover, in data set [1] (read-out: Half life T1/2 (converted)), the half-life is 1.6 h. Also, the Cmax in data set [1] (read-out: Plasma concentration Cmax) was found to be 0.657 µg/mL. Further, half-maximal inhibition in data set [2] (IC50) was put at 70.8 nM.

For `Cn1ncc(-c2ccc3c(=O)[nH]nc(CN)c3c2)c1-c1c(F)cc2c(c1C#N)O[C@@H]1CC[C@@H]1O2` (atropisomer, axis not shown; (P)) [Compound 1-p4, (P)-(2aR,8aS)-5-(4-(4-(aminomethyl)-1-oxo-1,2-dihydrophthalazin-6-yl)-1-methyl-1H-pyrazol-5-yl)-6-fluoro-1,2,2a,8a-tetrahydrobenzo[b]cyclobuta[e][1,4]dioxine-4-carbonitrile], the IC50 (commonly the midpoint of a concentration-inhibition curve) in data set [3] came to 5.48 nM.

Regarding `[2H]C([2H])([2H])n1ncc(-c2ccc3c(=O)[nH]nc(CN)c3c2)c1-c1c(F)cc2c(c1C#N)O[C@H]1CC[C@H]1O2` (single isomer, unassigned) [Compound 2-p3], the IC50 in data set [3] came out at 5.31 nM.

In the case of `[2H]C([2H])([2H])n1ncc(-c2ccc3c(=O)[nH]nc(CN)c3c2)c1-c1c(F)cc2c(c1C#N)O[C@@H]1CC[C@@H]1O2` (single isomer, unassigned) [Compound 2-p4], in data set [3], the IC50 came to 5.87 nM.

For the molecule `[2H]C([2H])([2H])n1ncc(-c2ccc3c(=O)[nH]nc(CN)c3c2)c1-c1c(F)cc2c(c1C#N)N1CCC[C@@H]1CO2` (single isomer, unassigned) [Compound 5-p1], the IC50 in data set [3] stood at 7.67 nM.

For `[2H]C([2H])([2H])n1ncc(-c2ccc3c(=O)[nH]nc(CN)c3c2)c1-c1c(F)cc2c(c1C#N)N1CCC[C@@H]1CO2` (single isomer, unassigned) [Compound 5-p2], the IC50 in data set [3] worked out at 4.91 nM.

Turning to `[2H]C([2H])([2H])n1ncc(-c2ccc3c(=O)[nH]nc(CN)c3c2)c1-c1c(F)cc2c(c1C#N)N1CCC[C@H]1CO2` (single isomer, unassigned) [Compound 8-p2], the IC50 in data set [3] stood at 3.86 nM.

For the molecule `[2H]C([2H])([2H])n1ncc(-c2ccc3c(=O)[nH]nc(CN)c3c2)c1-c1c(F)cc2c(c1C#N)OCC21CC1` [Compound 12, 6-(4-(4-(aminomethyl)-1-oxo-1,2-dihydrophthalazin-6-yl)-1-(methyl-d3)-1H-pyrazol-5-yl)-5-fluoro-2H-spiro[benzofuran-3,1'-cyclopropane]-7-carbonitrile], the IC50 in data set [3] was 6.39 nM.
